From patent US11396506B2, “Amino acid compounds with unbranched linkers and methods of use” (Pliant Therapeutics, Inc., priority 2018, dated 2022)

Molecular target: recombinant human integrin αVβ6 (Homo sapiens (Human), UniProt P06756+P18564)
Assay: Solid phase integrin αVβ6 binding assay
Settings: recombinant TGFβ1 LAP as ligand, values given as ranges, read-out: αVβ6 Inhibition IC50 (nM) - range
Protocol: Example B1—Solid Phase Integrin αVβ6 Binding Assay
Microplates were coated with recombinant human integrin αVβ6 (2 μg/mL) in PBS (100 μL/well 25 OC, overnight). The coating solution was removed, washed with wash buffer (0.05% Tween 20; 0.5 mM MnCl2; in 1×TBS). Plate was blocked with 200 μL/well of Block Buffer (1% BSA; 5% sucrose; 0.5 mM MnCl2; in 1×TBS) at 37° C. for 2 h. Dilutions of testing compounds and recombinant TGFβ1 LAP (0.67 μg/mL) in binding buffer (0.05% BSA; 2.5% sucrose; 0.5 mM MnCl2; in 1×TBS) were added. The plate was incubated for 2 hours at 25° C., washed, and incubated for 1 hour with Biotin-Anti-hLAP. Bound antibody was detected by peroxidase-conjugated streptavidin. The IC50 values for testing compounds were calculated by a four-parameter logistic regression.
The compounds tested were compound samples prepared according to procedures described in the Synthetic Examples section, with the stereochemical purity as indicated in the Examples.

Chain of recombinant human integrin αVβ6 (P06756 31-992): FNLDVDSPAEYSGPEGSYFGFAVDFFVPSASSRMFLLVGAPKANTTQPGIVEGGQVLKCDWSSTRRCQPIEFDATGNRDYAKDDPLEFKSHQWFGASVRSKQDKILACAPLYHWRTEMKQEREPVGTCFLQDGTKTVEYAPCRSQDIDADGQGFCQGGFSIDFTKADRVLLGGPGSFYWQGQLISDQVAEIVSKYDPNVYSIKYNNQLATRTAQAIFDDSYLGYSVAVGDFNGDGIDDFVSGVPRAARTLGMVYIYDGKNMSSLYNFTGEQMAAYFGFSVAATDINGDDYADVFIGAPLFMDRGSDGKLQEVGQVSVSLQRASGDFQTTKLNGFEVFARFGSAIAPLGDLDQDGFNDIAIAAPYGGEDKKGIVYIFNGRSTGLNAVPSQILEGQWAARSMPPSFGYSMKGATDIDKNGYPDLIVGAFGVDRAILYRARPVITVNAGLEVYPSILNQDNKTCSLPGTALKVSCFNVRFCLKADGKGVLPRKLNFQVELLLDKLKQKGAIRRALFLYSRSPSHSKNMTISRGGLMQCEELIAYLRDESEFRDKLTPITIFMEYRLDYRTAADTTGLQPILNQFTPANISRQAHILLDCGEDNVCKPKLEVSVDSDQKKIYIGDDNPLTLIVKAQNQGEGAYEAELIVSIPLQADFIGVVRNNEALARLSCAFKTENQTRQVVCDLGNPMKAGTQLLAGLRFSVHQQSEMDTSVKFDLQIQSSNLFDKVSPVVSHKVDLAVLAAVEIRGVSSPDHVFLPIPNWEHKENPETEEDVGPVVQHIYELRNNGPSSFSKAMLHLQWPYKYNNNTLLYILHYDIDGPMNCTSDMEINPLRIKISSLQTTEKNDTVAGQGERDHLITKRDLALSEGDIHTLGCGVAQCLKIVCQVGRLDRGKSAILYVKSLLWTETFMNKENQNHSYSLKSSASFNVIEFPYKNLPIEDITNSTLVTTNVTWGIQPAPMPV
Chain of recombinant human integrin αVβ6 (P18564 22-707): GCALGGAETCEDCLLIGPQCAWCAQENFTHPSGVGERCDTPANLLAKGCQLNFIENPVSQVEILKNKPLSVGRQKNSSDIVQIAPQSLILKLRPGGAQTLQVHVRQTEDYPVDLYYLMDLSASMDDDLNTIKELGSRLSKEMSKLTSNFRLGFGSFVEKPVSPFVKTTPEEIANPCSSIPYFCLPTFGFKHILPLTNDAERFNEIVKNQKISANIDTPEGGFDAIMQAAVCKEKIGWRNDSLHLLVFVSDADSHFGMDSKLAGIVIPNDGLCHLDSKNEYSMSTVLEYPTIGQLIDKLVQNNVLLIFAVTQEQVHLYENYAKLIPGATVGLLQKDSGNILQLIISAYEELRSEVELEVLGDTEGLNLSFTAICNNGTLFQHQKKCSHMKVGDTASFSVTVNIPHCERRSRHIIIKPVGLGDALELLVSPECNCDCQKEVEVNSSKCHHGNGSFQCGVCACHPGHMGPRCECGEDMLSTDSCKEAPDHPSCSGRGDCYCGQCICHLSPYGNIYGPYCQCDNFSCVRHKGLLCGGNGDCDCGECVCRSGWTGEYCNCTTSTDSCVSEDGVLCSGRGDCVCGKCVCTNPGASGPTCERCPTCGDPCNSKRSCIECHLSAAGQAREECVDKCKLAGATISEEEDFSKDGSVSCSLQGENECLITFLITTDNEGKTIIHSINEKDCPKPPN

CC1(C(=O)N[C@@H](CCCCCCCc2ccc3c(n2)NCCC3)C(=O)O)CCCCC1 [Compound 44, (S)-2-(1-methylcyclohexanecarboxamido)-9-(5,6,7,8-tetrahydro-1,8-naphthyridin-2-yl)nonanoic Acid]
IC50: < 50 nM

O=C(O)[C@H](CCCCCCCc1ccc2c(n1)NCCC2)NC(=O)[C@H]1CCOc2ccccc21 (mixture of isomers) [Compound 46, (S)-2-((S)-chromane-4-carboxamido)-9-(5,6,7,8-tetrahydro-1,8-naphthyridin-2-yl)nonanoic Acid and (S)-2-((R)-chromane-4-carboxamido)-9-(5,6,7,8-tetrahydro-1,8-naphthyridin-2-yl)nonanoic Acid]
IC50: 50 to 250 nM

CC(C)(C)OC(=O)N1CC(C)(OC(=O)N[C@@H](CCCCCCCc2ccc3c(n2)NCCC3)C(=O)O)C1 [Compound 32, (S)-2-((((1-(tert-butoxycarbonyl)-3-methylazetidin-3-yl)oxy)carbonyl)amino)-9-(5,6,7,8-tetrahydro-1,8-naphthyridin-2-yl)nonanoic Acid]
IC50: < 50 nM

O=C(N[C@@H](CCCCCCCc1ccc2c(n1)NCCC2)C(=O)O)C1CCNCC1 [Compound 34, (S)-2-(piperidine-4-carboxamido)-9-(5,6,7,8-tetrahydro-1,8-naphthyridin-2-yl)nonanoic Acid]
IC50: 50 to 250 nM

CS(=O)(=O)CCCC(=O)N[C@@H](CCCCCCCc1ccc2c(n1)NCCC2)C(=O)O [Compound 24, (S)-2-(4-(methylsulfonyl)butanamido)-9-(5,6,7,8-tetrahydro-1,8-naphthyridin-2-yl)nonanoic Acid]
IC50: 251 to 1000 nM

NS(=O)(=O)CCC(=O)N[C@@H](CCCCCCCc1ccc2c(n1)NCCC2)C(=O)O [Compound 38, (S)-2-(3-sulfamoylpropanamido)-9-(5,6,7,8-tetrahydro-1,8-naphthyridin-2-yl)nonanoic Acid]
IC50: 251 to 1000 nM

CC(=O)N1CCC(C(=O)N[C@@H](CCCCCCCc2ccc3c(n2)NCCC3)C(=O)O)CC1 [Compound 36, (S)-2-(1-acetylpiperidine-4-carboxamido)-9-(5,6,7,8-tetrahydro-1,8-naphthyridin-2-yl)nonanoic Acid]
IC50: 50 to 250 nM

CS(=O)(=O)N1CCC(C(=O)N[C@@H](CCCCCCCc2ccc3c(n2)NCCC3)C(=O)O)CC1 [Compound 39, (S)-2-(1-(methylsulfonyl)piperidine-4-carboxamido)-9-(5,6,7,8-tetrahydro-1,8-naphthyridin-2-yl)nonanoic Acid]
IC50: < 50 nM

CC1(C(=O)N[C@@H](CCCCCCCc2ccc3c(n2)NCCC3)C(=O)O)CCOCC1 [Compound 8, (S)-2-(4-methyltetrahydro-2H-pyran-4-carboxamido)-9-(5,6,7,8-tetrahydro-1,8-naphthyridin-2-yl)nonanoic Acid]
IC50: < 50 nM

O=C(O)[C@H](CCCCCCCc1ccc2c(n1)NCCC2)NC(=O)C12CC(C1)C2 [Compound 45, (S)-2-(bicyclo[1.1.1]pentane-1-carboxamido)-9-(5,6,7,8-tetrahydro-1,8-naphthyridin-2-yl)nonanoic Acid]
IC50: < 50 nM

COCCCC(=O)N[C@@H](CCCCCCCc1ccc2c(n1)NCCC2)C(=O)O [Compound 30, (S)-2-(4-methoxybutanamido)-9-(5,6,7,8-tetrahydro-1,8-naphthyridin-2-yl)nonanoic Acid]
IC50: 251 to 1000 nM

CS(=O)(=O)N1CCC[C@@H](C(=O)N[C@@H](CCCCCCCc2ccc3c(n2)NCCC3)C(=O)O)C1 (mixture of isomers) [Compound 37, (S)-2-((R)-1-(methylsulfonyl)piperidine-3-carboxamido)-9-(5,6,7,8-tetrahydro-1,8-naphthyridin-2-yl)nonanoic acid and (S)-2-((S)-1-(methylsulfonyl)piperidine-3-carboxamido)-9-(5,6,7,8-tetrahydro-1,8-naphthyridin-2-yl)nonanoic Acid]
IC50: < 50 nM

O=C(O)[C@H](CCCCCCCc1ccc2c(n1)NCCC2)NC(=O)C1(C(F)(F)F)CCOCC1 [Compound 42, (S)-9-(5,6,7,8-tetrahydro-1,8-naphthyridin-2-yl)-2-(4-(trifluoromethyl)tetrahydro-2H-pyran-4-carboxamido)nonanoic Acid]
IC50: < 50 nM

O=C(N[C@@H](CCCCCCCc1ccc2c(n1)NCCC2)C(=O)O)C1CC2CCC(C1)O2 (stereo partly drawn) [Compound 43, (S)-2-((1R,3s,5S)-8-oxabicyclo[3.2.1]octane-3-carboxamido)-9-(5,6,7,8-tetrahydro-1,8-naphthyridin-2-yl)nonanoic acid and (S)-2-((1R,3r,5S)-8-oxabicyclo[3.2.1]octane-3-carboxamido)-9-(5,6,7,8-tetrahydro-1,8-naphthyridin-2-yl)nonanoic Acid]
IC50: < 50 nM

C[C@@]1(C(=O)N[C@@H](CCCCCCCc2ccc3c(n2)NCCC3)C(=O)O)CCCOC1 (mixture of isomers) [Compound 47, (S)-2-((R)-3-methyltetrahydro-2H-pyran-3-carboxamido)-9-(5,6,7,8-tetrahydro-1,8-naphthyridin-2-yl)nonanoic Acid and (S)-2-((S)-3-methyltetrahydro-2H-pyran-3-carboxamido)-9-(5,6,7,8-tetrahydro-1,8-naphthyridin-2-yl)nonanoic Acid]
IC50: 50 to 250 nM
